According to BindingDB's records for doi:10.1016/j.bioorg.2015.02.009 (Kyushu Institute of Technology, 2015):

Experiments:
Assay in all cases: HDAC Enzyme Activity Assay
Histone deacetylase 4 = Histone deacetylase 4 (Homo sapiens, UniProt P56524)
Experimental: (§1) For the enzyme assay, 10 µL of the enzyme fraction was added to 1 µL of fluorescent substrate (2 mM Ac-KGLGK(Ac)-MCA) and 9 µL of histone deacetylase buffer, and the mixture was incubated at 37 °C for 30 min. The reaction was stopped by the addition of 30 µL of trypsin (20 mg/mL) and incubated at 37 °C for 15 min. The released amino methyl coumarin (AMC) was measured using a fluorescence plate reader. DTT was added simultaneously with drugs to the enzyme solutions

Histone deacetylase 6 = target: T1, Histone deacetylase 6 (Mus musculus, UniProt Q9Z2V5)
T1 sequence (Q9Z2V5 whole entry): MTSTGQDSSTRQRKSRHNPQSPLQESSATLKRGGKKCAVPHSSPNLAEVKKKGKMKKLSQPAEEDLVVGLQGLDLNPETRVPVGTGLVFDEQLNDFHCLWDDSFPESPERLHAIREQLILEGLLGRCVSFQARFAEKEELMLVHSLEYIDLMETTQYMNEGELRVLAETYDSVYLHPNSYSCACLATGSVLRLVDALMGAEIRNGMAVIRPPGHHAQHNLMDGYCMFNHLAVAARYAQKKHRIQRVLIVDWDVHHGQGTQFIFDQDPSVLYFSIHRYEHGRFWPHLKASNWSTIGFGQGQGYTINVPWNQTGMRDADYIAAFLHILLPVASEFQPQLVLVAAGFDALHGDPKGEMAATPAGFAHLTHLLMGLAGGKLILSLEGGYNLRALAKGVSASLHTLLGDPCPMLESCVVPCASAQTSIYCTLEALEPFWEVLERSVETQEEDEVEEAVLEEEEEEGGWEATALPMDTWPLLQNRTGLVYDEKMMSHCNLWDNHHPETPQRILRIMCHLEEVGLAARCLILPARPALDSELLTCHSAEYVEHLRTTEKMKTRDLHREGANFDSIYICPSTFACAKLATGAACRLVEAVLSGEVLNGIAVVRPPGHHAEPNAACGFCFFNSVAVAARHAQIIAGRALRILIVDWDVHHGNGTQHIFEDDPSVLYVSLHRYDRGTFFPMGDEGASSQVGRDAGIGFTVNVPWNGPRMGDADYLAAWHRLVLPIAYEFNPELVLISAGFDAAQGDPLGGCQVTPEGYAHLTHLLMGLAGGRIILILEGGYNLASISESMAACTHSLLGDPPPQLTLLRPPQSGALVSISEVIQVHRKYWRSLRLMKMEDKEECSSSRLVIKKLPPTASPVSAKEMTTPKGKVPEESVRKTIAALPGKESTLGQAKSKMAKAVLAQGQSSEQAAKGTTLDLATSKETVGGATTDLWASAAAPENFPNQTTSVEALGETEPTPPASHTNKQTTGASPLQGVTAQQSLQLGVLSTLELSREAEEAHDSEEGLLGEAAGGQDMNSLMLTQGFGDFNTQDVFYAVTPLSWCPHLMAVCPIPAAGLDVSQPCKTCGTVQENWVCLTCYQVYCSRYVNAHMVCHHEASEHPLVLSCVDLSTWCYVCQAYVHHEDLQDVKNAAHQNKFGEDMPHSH
Experimental: as §1

Histone deacetylase 1 = Histone deacetylase 1 (Homo sapiens, UniProt Q13547)
Experimental: as §1

Sequence of Histone deacetylase 4 (P56524 whole entry): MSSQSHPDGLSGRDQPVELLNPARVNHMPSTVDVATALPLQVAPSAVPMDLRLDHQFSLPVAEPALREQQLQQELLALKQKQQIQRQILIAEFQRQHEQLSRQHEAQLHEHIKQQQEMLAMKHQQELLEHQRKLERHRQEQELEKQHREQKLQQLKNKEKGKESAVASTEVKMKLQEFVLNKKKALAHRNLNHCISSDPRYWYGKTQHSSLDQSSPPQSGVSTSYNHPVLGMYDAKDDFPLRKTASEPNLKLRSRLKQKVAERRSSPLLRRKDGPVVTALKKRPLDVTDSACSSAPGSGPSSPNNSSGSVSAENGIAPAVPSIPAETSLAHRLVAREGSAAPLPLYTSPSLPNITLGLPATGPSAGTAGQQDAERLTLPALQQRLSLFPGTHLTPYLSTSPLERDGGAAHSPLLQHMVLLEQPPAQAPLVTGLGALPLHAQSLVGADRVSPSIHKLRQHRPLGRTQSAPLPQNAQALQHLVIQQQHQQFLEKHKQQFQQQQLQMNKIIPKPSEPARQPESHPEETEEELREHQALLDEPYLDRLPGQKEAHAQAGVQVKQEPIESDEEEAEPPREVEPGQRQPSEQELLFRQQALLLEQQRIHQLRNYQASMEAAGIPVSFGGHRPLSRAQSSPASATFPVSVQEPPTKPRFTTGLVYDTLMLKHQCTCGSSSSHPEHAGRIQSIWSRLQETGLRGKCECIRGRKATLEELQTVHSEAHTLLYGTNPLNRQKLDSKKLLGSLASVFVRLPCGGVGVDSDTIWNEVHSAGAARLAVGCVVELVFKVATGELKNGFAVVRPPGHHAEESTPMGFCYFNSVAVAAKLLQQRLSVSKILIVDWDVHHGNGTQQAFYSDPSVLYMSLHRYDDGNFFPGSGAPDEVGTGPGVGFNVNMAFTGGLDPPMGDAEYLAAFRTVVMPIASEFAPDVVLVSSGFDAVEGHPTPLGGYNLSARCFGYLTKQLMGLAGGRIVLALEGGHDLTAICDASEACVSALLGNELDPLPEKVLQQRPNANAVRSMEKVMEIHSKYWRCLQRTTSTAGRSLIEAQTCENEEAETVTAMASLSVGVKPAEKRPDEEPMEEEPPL
Sequence of Histone deacetylase 1 (Q13547 whole entry): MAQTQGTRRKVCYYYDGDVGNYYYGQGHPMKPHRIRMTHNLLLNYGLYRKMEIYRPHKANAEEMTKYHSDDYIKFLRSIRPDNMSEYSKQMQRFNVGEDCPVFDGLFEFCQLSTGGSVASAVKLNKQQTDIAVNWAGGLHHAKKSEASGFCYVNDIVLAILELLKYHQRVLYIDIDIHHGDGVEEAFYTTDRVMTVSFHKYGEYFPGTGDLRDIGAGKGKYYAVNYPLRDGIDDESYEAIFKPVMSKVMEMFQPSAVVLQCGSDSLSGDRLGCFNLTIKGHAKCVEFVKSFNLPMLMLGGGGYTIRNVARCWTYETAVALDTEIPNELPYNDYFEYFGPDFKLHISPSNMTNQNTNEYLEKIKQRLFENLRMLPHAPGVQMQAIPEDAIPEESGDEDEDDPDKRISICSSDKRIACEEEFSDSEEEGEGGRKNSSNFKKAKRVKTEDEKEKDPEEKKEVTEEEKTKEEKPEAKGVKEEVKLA

| SMILES | IC50 (Histone deacetylase 4) [nM] | IC50 (Histone deacetylase 6) [nM] | IC50 (Histone deacetylase 1) [nM] |
| --- | --- | --- | --- |
| O=C(N[C@@H](CCCCCSSCCO)C(=O)Nc1cccc2cccnc12)OCc1ccccc1 [Z-L-Am7(betaMe)-QA (3)] | 2 | 3.2 | 4.9 |
| COCCOCC(=O)SCCCCC[C@H](NC(=O)OCc1ccccc1)C(=O)Nc1cccc2cccnc12 [Z-L-Am7(AcEtMe)-QA (2)] | 18 | 29 | 19 |
| CC(=O)SCCCCC[C@H](NC(=O)OCc1ccccc1)C(=O)Nc1cccc2cccnc12 [Z-L-Am7(Ac)-QA (1)] | 18 | 34 | 47 |
| O=C(CCCCC[C@H](NC(=O)OCc1ccccc1)C(=O)Nc1cccc2cccnc12)NO [(S)-benzyl 8-(hydroxyamino)-1,8-dioxo-1-(quinolin-8-ylamino)octan-2-ylcarbamate] | 11 | 45 | 10 |
| O=C(NC(CCCCCSSCCCCC[C@H](NC(=O)OCc1ccccc1)C(=O)Nc1cccc2cccnc12)C(=O)Nc1cccc2cccnc12)OCc1ccccc1 (stereo partly drawn) [(Z-L-Am7(S-)-QA)2 (4)] | 3.4 | 7.5 | 8.2 |
